{
  "source": "patent US20080221203A1",
  "about": "“Use of Agonists and Antagonists of Beta Adrenoceptors for Treating Arterial Disease” (UNIVERSITY CATHOLIQUE DE LOUVAIN, priority 2004, published 2008)",
  "key": {"[1]": {"system": "human coronary microarteries", "assay": "Videomicroscopy of relaxation of pre-constricted, pressurized human coronary microarteries", "format": "cell-based", "conditions": "for relaxation, % of the maximum ET-1-evoked contraction: agonist alone; for relaxation in the presence of bupranolol: beta1-2-3 antagonist bupranolol; for relaxation, % of the maximum ET-1-evoked contraction, in the presence of nadolol: pre-treatment with beta1-2 antagonist nadolol; for relaxation of vessels without functional endothelium, % of the maximum KCl-evoked contraction: de-endothelialized / endothelium destroyed microarteries; for relaxation, % of the maximum KCl-evoked contraction: pre-constricted with high (50 mmol/L) KCl, functional endothelium; for relaxation of de-endothelialized vessels in the presence of nadolol: de-endothelialized microarteries", "experimental": "Vessels were cannulated with dual glass micropipettes and secured with 10-0 nylon monofilament sutures in a Plexiglas isolated organ chamber circulated with oxygenated PSS (37° C.) and placed on an inverted microscope (Axiovert S100, Zeiss, Germany) connected to a CCD camera. Microvessels were pressurized with a PSS-filled burette manometer at 60 mmHg (a pressure chosen to avoid stretch-dependent effects typically manifested at higher pressures) in a no-flow state. Digitized imaging (IONOPTIX Corporation, Milton, Mass.) allowed continuous monitoring of vessel external diameter. All experiments were carried out in the presence of cyclooxygenase inhibitor (indomethacin, 10 μmol/L). After 30-45 min equilibration, vessels were contracted with high KCl solution (PSS, 50 mmol/L KCl replacing NaCl stoechiometrically). At the maximum of contraction, vasorelaxation with Substance P (100 nmol/L) was systematically tested to assess the presence of a functional endothelium. In some experiments, the endothelium was selectively destroyed by an air bolus. All reagents were added in the bathing solution."}, "[2]": {"system": "human coronary microarteries", "assay": "Measurement of smooth muscle membrane potential of isolated human coronary microvessels", "format": "cell-based", "conditions": "in the presence of NO synthase and cyclooxygenase inhibition", "description": "Human right atrial and left ventricular tissue specimens obtained from patients undergoing cardiac surgery were placed in physiological saline solution (PSS) containing (mmol/L): NaCl, 120; KCl, 5.9; NaHCO3, 25; dextrose, 17.5; CaCl2, 2.5; MgCl2, 1.2; NaH2PO4, 1.2 (pH 7.4) maintained at 0-4° C., and carefully dissected to isolate microarteries. Coronary microarteries (70-170 μm diameter, 1-2 mm length), rapidly cleaned of adherent connective tissue were either kept at −80° C. until homogenization or used for functional experiments.\nMicrovessels were mounted in an organ bath continuously circulated (6 mL/min) with oxygenated PSS at 37° C. All experiments were performed in the presence of a NO synthase inhibitor (L-w-nitroarginine, 100 μmol/L) and indomethacin (10 μmol/L). After 60 minutes of equilibration, measurement of the smooth muscle membrane potential (Em) was made with a glass microelectrode (Clark, Electromedical instruments, type GC 120F-15) filled with 1.5M KCl. The input resistance of the microelectrodes varied between 50 and 80 MΩ. Differences in electric potential were measured with a Dagan amplifier (8100, Minneapolis, Minn., U.S.A.) and recorded. Criteria for a successful impalement were (1) an abrupt drop in voltage on entry of microelectrode into the cell, (2) stable membrane potential for at least 2 min, and (3) a sharp return to zero on withdrawal of the electrode."}, "aortic rings": {"system": "aortic rings", "assay": "Mouse aortic ring angiogenesis (new tubes formation)", "format": "cell-based", "conditions": "for angiogenic response in beta3 adrenoceptor deficient rings: aortic rings from beta 3-KO mice"}, "human beta3 AR": {"system": "human beta3 AR", "assay": "Akt and eNOS phosphorylation in neonatal cardiac myocytes with adenoviral expression of human beta3 AR", "format": "cell-based, mouse", "conditions": "agonist-mediated activation, Isoproterenol+nadolol; myocytes from C57BI6 control and cardiac eNOS transgene mice"}, "[3]": {"system": "cultured endothelial cells", "assay": "NO release in cultured endothelial cells", "format": "cell-based", "conditions": "for NO release in the presence of L-NAME: 10 μM; for NO release: at 10 μM", "description": "(§1) Human and rat cardiac coronary resistance microarteries (70-170μ diameter) were mounted in dual glass micropipettes chambers in no-flow state and constant pressure for vasomotion analysis by videomicroscopy. In addition, calcium transients and NO release were measured in cultured endothelial cells with an amperometric electrode and Fura-2 fluorescence, respectively. Phosphorylation of eNOS was measured in the same cells with phospho-specific antibodies."}, "eNOS": {"system": "eNOS", "assay": "eNOS Threonine 495 phosphorylation in cultured endothelial cells (phospho-specific antibodies)", "format": "cell-based", "description": "as §1"}, "[4]": {"system": "cultured endothelial cells", "assay": "Calcium transients (Ca fluorescence) in cultured endothelial cells", "format": "cell-based", "conditions": "for Ca signal increase after pre-treatment with nadolol: beta1-2 antagonist nadolol; for Ca signal increase after pre-treatment with bupranolol: combined beta1-2-3 antagonist bupranolol; for increase of Ca fluorescence: endothelial cells, compound alone", "description": "as §1"}, "[5]": {"system": "rat coronary microvessels", "assay": "Videomicroscopy of relaxation of rat coronary microvessels", "format": "cell-based", "conditions": "for max relaxation, % of PGF2alpha pre-contracted tone: at 10 μM", "description": "as §1"}, "[6]": {"system": "coronary microarteries from mice deficient for the beta3-adrenoceptor", "assay": "Relaxation of coronary microarteries from mice deficient for the beta3-adrenoceptor", "format": "cell-based, mouse", "description": "Human and rat cardiac coronary resistance microarteries (70-170μ diameter) were mounted in dual glass micropipettes chambers in no-flow state and constant pressure for vasomotion analysis by videomicroscopy. In addition, calcium transients and NO release were measured in cultured endothelial cells with an amperometric electrode and Fura-2 fluorescence, respectively. Phosphorylation of eNOS was measured in the same cells with phospho-specific antibodies. […] Relaxation to Nebivolol was blunted in coronary microarteries from mice deficient for the beta3-adrenoceptor (C)."}, "[7]": {"conditions": "ET-1 pre-constricted, intact endothelium"}, "[8]": {"conditions": "ET-1 pre-constricted, intact endothelium, listed as BRL 37344"}, "[9]": {"conditions": "ET-1 pre-constricted, intact endothelium, listed as isoproterenol"}, "[10]": {"conditions": "rat microvessels, listed as Nebivolol"}},
  "note": "Entries after “also recorded” stand apart in the source; their conditions may differ. Like-named read-outs stand apart in the source and are kept apart here. No end group written: not given here.",
  "data": [
    {"molecule": "C[C@H](Cc1ccc(OCC(=O)O)cc1)NC[C@H](O)c1cccc(Cl)c1", "note": "[BRL37344]", "values": [
      {"measurement": "relaxation of ET-1 preconstricted vessels under NO synthase inhibition", "setting": "[1]; ET-1 pre-constricted, L-w-nitroarginine", "value": "unaffected"},
      {"measurement": "relaxation, % of the maximum ET-1-evoked contraction", "setting": "[1]; [7]", "value": "~50", "unit": "%"},
      {"measurement": "relaxation, % of the maximum ET-1-evoked contraction", "setting": "[1]; [8]", "value": "52.3±13.2", "unit": "%"},
      {"measurement": "relaxation in the presence of bupranolol", "setting": "[1]; [7]", "value": "blocked; also recorded: abolished"},
      {"measurement": "relaxation in the presence of bupranolol", "setting": "[1]; [8]", "value": "fully abrogated"},
      {"measurement": "relaxation, % of the maximum ET-1-evoked contraction, in the presence of nadolol", "setting": "[1]; [7]", "value": "insensitive; also recorded: resistant"},
      {"measurement": "relaxation, % of the maximum ET-1-evoked contraction, in the presence of nadolol", "setting": "[1]; [8]", "value": "54.9±16.8", "unit": "%"},
      {"measurement": "max relaxation, % of ET-1 pre-contracted tone", "setting": "[1]; Example 2, nebivolol at 10 μM", "value": "reproduced"},
      {"measurement": "relaxation of KCl-preconstricted vessels under NO synthase inhibition", "setting": "[1]; KCl pre-constricted, L-w-nitroarginine 100 μmol/L", "value": "totally abrogated"},
      {"measurement": "relaxation of vessels without functional endothelium, % of the maximum KCl-evoked contraction", "setting": "[1]", "value": "absent; also recorded: not observed; also recorded: failed to relax"},
      {"measurement": "relaxation, % of the maximum KCl-evoked contraction", "setting": "[1]", "value": 15.5, "unit": "%"},
      {"measurement": "relaxation, % of the maximum KCl-evoked contraction", "setting": "[1]; listed as BRL 37344", "value": "15.5±5.3", "unit": "%"},
      {"measurement": "smooth muscle membrane potential", "setting": "[2]", "value": "significant hyperpolarization"}
    ]},
    {"molecule": "CCOC(=O)COc1ccc2c(c1)C[C@@H](NC[C@H](O)c1cccc(Cl)c1)CC2", "note": "[SR58611]", "values": [
      {"measurement": "new tubes formation compared to untreated controls", "setting": "aortic rings; aortic rings from C57BI6 mice treated in vitro", "value": "time-dependent increase in new tubes formation"},
      {"measurement": "angiogenic response in beta3 adrenoceptor deficient rings", "setting": "aortic rings", "value": "completely lost"}
    ]},
    {"molecule": "CC(C)NCC(O)c1ccc(O)c(O)c1", "note": "(stereo not drawn) [isoprenaline]", "values": [
      {"measurement": "relaxation, % of the maximum ET-1-evoked contraction", "setting": "[1]; [7]", "value": "~50", "unit": "%"},
      {"measurement": "relaxation, % of the maximum ET-1-evoked contraction", "setting": "[1]; [9]", "value": "by half"},
      {"measurement": "relaxation in the presence of bupranolol", "setting": "[1]; [7]", "value": "blocked; also recorded: abolished"},
      {"measurement": "relaxation in the presence of bupranolol", "setting": "[1]; [9]", "value": "fully abrogated"},
      {"measurement": "relaxation, % of the maximum ET-1-evoked contraction, in the presence of nadolol", "setting": "[1]; [7]", "value": "insensitive; also recorded: resistant"},
      {"measurement": "relaxation, % of the maximum ET-1-evoked contraction, in the presence of nadolol", "setting": "[1]; [9]", "value": "unaffected"},
      {"measurement": "relaxation of vessels without functional endothelium, % of the maximum KCl-evoked contraction", "setting": "[1]", "value": "21.0±6.3", "unit": "%"},
      {"measurement": "relaxation of de-endothelialized vessels in the presence of nadolol", "setting": "[1]; nadolol, listed as Iso", "value": "abrogated"},
      {"measurement": "relaxation of de-endothelialized vessels in the presence of nadolol", "setting": "[1]; nadolol, listed as isoproterenol", "value": "1.4±0.5", "unit": "%"},
      {"measurement": "phosphorylation of Akt and downstream eNOS", "setting": "human beta3 AR", "value": "increased phosphorylation of Akt and downstream eNOS"}
    ]},
    {"molecule": "OC(CNCC(O)C1CCc2cc(F)ccc2O1)C1CCc2cc(F)ccc2O1", "note": "(stereo not drawn) [nebivolol]", "values": [
      {"measurement": "dependence of relaxation on endothelium (Example 2)", "setting": "[1]; human coronary microvessels", "value": "dependent on a functional endothelium"},
      {"measurement": "relaxation under NOS inhibition (Example 2)", "setting": "[1]; human coronary microvessels, NOS inhibition", "value": "sensitive to NOS inhibition"},
      {"measurement": "relaxation in the presence of nadolol (Example 2)", "setting": "[1]; human coronary microvessels, nadolol", "value": "insensitive"},
      {"measurement": "NO release in the presence of L-NAME", "setting": "[3]", "value": "26.5±4.3", "unit": "nmoles/μg prot"},
      {"measurement": "NO release in the presence of L-NAME", "setting": "[3]; listed as Nebivolol", "value": "sensitive to L-Name"},
      {"measurement": "NO release", "setting": "[3]", "value": 117, "unit": "nmol/µg protein"},
      {"measurement": "NO release", "setting": "[3]; listed as Nebivolol", "value": "evoked a release of NO"},
      {"measurement": "phosphorylation of Threonine 495 on eNOS", "setting": "eNOS", "value": "dephosphorylated"},
      {"measurement": "phosphorylation of Threonine 495 on eNOS", "setting": "eNOS; listed as Nebivolol", "value": "time-dependent dephosphorylation"},
      {"measurement": "Ca signal increase after pre-treatment with nadolol", "setting": "[4]", "value": "no effect"},
      {"measurement": "Ca signal increase after pre-treatment with nadolol", "setting": "[4]; listed as Nebivolol", "value": "unchanged"},
      {"measurement": "Ca signal increase after pre-treatment with bupranolol", "setting": "[4]", "value": "significantly blunted"},
      {"measurement": "Ca signal increase after pre-treatment with bupranolol", "setting": "[4]; listed as Nebivolol", "value": "sensitive to bupranolol"},
      {"measurement": "increase of Ca fluorescence", "setting": "[4]", "value": "91.8±23.7", "unit": "%"},
      {"measurement": "increase of Ca fluorescence", "setting": "[4]; listed as Nebivolol", "value": "cytosolic calcium increase"},
      {"measurement": "max relaxation, % of PGF2alpha pre-contracted tone", "setting": "[5]", "value": "dose-dependent-relaxation"},
      {"measurement": "max relaxation, % of PGF2alpha pre-contracted tone", "setting": "[5]; listed as Nebivolol", "value": "86±6", "unit": "%"},
      {"measurement": "relaxation under NOS inhibition", "setting": "[5]; rat microvessels, NOS inhibition", "value": "sensitive to NOS inhibition"},
      {"measurement": "relaxation in the presence of bupranolol", "setting": "[5]; rat microvessels", "value": "sensitive to bupranolol"},
      {"measurement": "relaxation in the presence of bupranolol", "setting": "[5]; [10]", "value": "prevented"},
      {"measurement": "relaxation in the presence of nadolol", "setting": "[5]; rat microvessels", "value": "not to nadolol"},
      {"measurement": "relaxation in the presence of nadolol", "setting": "[5]; [10]", "value": "unaffected"},
      {"measurement": "relaxation in microvessels from mice genetically deficient in beta3-AR", "setting": "[6]", "value": "blunted"}
    ]},
    {"molecule": "NC[C@H](O)c1ccc(O)c(O)c1", "note": "[norepinephrine]", "values": [
      {"measurement": "relaxation, % of ET-1 contraction", "setting": "[1]; 1 micromol/l, intact endothelium, pretreated with nadolol and phentolamine", "value": "41.4±7", "unit": "%"}
    ]},
    {"molecule": "Substance P: endothelium-specific agonist (RPKPQQFFGLM; ends and bridges not checked; UniProt P20366 58-68, looked up)", "values": [
      {"measurement": "relaxation of vessels without functional endothelium, % of the maximum KCl-evoked contraction", "setting": "[1]", "value": "absence of relaxation"}
    ]},
    {"molecule": "VEGF", "values": [
      {"measurement": "angiogenic response in beta3 adrenoceptor deficient rings", "setting": "aortic rings", "value": "angiogenic response"}
    ]}
  ]
}
